Each compound was assayed against T1, Recombinant human ASK1 kinase (Homo sapiens, UniProt Q99683) (assay: ASK1 kinase HTRF assay (HTRF KinEASE-STK, phosphorylation of biotinylated peptide substrate)). Settings: not given.
T1 construct: purchased Invitrogen Inc
T1 sequence (Q99683 1-1374): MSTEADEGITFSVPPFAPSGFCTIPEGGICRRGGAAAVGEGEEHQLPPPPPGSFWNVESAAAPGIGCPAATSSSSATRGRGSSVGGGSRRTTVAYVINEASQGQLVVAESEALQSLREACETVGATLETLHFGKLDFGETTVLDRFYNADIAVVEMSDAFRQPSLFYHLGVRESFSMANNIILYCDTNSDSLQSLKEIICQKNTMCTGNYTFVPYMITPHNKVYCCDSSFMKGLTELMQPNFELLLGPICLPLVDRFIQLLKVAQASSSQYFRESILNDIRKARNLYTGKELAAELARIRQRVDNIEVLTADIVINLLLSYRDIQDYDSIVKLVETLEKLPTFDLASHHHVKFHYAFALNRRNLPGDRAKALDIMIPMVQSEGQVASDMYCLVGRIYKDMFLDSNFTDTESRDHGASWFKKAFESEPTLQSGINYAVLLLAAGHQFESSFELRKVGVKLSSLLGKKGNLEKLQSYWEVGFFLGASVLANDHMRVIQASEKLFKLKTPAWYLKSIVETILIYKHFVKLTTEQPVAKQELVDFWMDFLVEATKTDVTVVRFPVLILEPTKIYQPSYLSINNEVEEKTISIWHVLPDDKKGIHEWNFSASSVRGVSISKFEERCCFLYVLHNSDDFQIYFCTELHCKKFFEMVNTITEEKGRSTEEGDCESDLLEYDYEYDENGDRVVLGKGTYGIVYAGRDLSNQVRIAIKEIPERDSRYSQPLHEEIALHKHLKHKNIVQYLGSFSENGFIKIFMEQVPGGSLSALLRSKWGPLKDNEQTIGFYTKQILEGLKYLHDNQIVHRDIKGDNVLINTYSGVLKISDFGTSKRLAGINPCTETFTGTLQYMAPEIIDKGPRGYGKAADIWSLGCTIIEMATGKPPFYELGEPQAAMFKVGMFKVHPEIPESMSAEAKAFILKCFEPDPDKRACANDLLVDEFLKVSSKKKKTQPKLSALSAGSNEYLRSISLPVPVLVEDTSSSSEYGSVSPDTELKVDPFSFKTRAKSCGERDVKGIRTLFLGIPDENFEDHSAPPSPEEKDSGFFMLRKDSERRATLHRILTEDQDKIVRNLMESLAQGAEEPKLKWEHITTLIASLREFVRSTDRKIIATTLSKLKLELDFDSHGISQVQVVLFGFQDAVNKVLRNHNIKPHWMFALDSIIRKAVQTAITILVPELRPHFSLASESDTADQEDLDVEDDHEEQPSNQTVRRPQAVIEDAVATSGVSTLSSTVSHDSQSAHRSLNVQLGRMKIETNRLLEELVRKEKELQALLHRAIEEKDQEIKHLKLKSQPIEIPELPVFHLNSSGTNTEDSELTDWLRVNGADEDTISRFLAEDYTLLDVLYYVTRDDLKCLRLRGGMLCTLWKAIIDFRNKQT
Assay type: biochemical
How it was run: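 HTRF KinEASE-STK read-out of biotinylated peptide phosphorylation. Compound incubated with 3 nM ASK1 and 1 uM STK-substrate-biotin in kinase buffer containing 5 mM MgCl2 and 1 mM DTT.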
`CC(C)n1cnnc1-c1cccc(NC(=O)Nc2ccc3ccccc3n2)n1` [Compound I-067] was tested, and the EC50 was under 50 nM.
Compound `CC(C)n1cnnc1-c1cccc(NC(=O)Nc2ccncc2)n1` [Compound I-033] has an EC50 of 50 to 500 nM.

Same assay, conditions: 3 nM ASK1 kinase, 1 uM STK-substrate-biotin, HTRF detection; read-out: EC50
`CC(C)n1cnnc1-c1cccc(NC(=O)Nc2ccc(C(N)=O)cn2)n1` [Compound I-009, 6-(3-(6-(4-Isopropyl-4H-1,2,4-triazol-3-yl)pyridin-2-yl)ureido)nicotinamide] gave an EC50 of under 50 nM.
With `CC(C)n1cnnc1-c1cccc(NC(=O)Nc2cccc(-c3nncn3C(C)C)n2)n1` [Compound I-171] the EC50 was 50 to 500 nM.
For `Cc1ccnc(NC(=O)Nc2cccc(-c3nncn3C(C)C)n2)c1` [Compound I-038], the EC50 was under 50 nM.
Compound `C[C@H](CO)n1cnnc1-c1cccc(NC(=O)Nc2cc(C(=O)N3CCC(O)CC3)ccn2)n1` [Compound I-137] has an EC50 of under 50 nM.
Compound `CC(C)n1cnnc1-c1cccc(N2CCN(c3ccc(N4CCOCC4)cn3)C2=O)n1` [Compound V-12] has an EC50 of under 50 nM.
Work on `CC(C)n1cnnc1-c1cccc(NC(=O)Nc2cc(-c3ccncc3)ccn2)n1` [Compound I-087] yielded an EC50 of under 50 nM.
Compound `CC(C)n1cnnc1-c1cccc(NC(=O)Nc2ccc(-n3cnc(C4CC4)c3)cn2)n1` [Compound I-169] has an EC50 of under 50 nM.
Compound `CC(C)n1cnnc1-c1cccc(NC(=O)Nc2ncccc2OCc2ccccc2)n1` [Compound I-070] has an EC50 of under 50 nM.
`CC(C)n1cnnc1-c1cccc(N2CCN(c3ccc(N4CCOCC4)cc3)C2=O)n1` [Compound V-11] gave an EC50 of under 50 nM.
With `CC(C)n1cnnc1-c1cccc(NC(=O)Nc2cc(C(N)=O)ccn2)n1` [Compound I-108] the EC50 was under 50 nM.
`CC(C)n1cnnc1-c1cccc(NC(=O)Nc2ncccc2Br)n1` [Compound I-176] showed an EC50 of under 50 nM.
`Cc1ccc(NC(=O)Nc2cccc(-c3nncn3[C@H](C)CO)n2)nc1` [Compound I-036] showed an EC50 of under 50 nM.
For `CC(=O)N1CCN(c2ccnc(NC(=O)Nc3cccc(-c4nncn4C(C)C)n3)c2)CC1` [Compound I-104], the EC50 was under 50 nM.

From US11427556B2, “Urea derivatives as inhibitors of ASK1” (Hepagene Therapeutics (HK) Limited, priority 2017, dated 2022)
